# The source made the active and inactive calls.
# How the values were obtained:
# [1] = molecular target: Cyclin-dependent kinase 19 (Homo sapiens, UniProt Q9BWU1); assay: Navigating the Kinome. Panel member name: CDC2L6; format: functional
# [2] = molecular target: Vascular endothelial growth factor receptor 1 (Homo sapiens, UniProt P17948); format: functional;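 also: measured within a kinome-wide profiling panel, FLT1 as the panel member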
# [3] = molecular target: T1, Sentrin-specific protease 8 (Homo sapiens, UniProt Q96LD8); assay: SENP8 protease inhibitors, SAR follow-up, biochemical, luminescence (AID 504501); format: functional
# T1 sequence (Q96LD8 whole entry): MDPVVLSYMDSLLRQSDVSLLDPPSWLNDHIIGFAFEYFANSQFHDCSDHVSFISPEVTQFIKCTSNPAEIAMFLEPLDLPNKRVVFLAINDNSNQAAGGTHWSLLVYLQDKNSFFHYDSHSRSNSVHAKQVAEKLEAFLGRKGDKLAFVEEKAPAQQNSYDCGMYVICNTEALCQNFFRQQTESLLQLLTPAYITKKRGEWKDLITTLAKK
# Caspase-3 = molecular target: T2, Caspase-3 (Homo sapiens, UniProt P42574); assay: SAR Analysis of small molecule inhibitors of Sentrin-specific proteases (SENPs) using a Caspase-3 Selectivity assay. [Related pubchem assays (depositor defined):AID2540, AID2599, AID434973, AID489001]; format: functional
# T2 sequence (P42574 whole entry): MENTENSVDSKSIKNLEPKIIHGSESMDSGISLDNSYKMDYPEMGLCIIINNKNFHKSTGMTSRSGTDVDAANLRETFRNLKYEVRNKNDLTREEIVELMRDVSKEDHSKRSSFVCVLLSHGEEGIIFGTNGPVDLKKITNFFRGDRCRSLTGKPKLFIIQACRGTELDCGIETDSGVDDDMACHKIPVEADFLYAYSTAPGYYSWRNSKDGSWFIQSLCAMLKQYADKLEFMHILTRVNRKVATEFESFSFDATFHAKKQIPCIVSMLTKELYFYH
# [4] = molecular target: T3, Sentrin-specific protease 6 (Homo sapiens, UniProt Q9GZR1); assay: SAR Analysis of small molecule inhibitors of Sentrin-specific protease 6 (SENP6) using a Luminescent assay. [Related pubchem assays (depositor defined):AID2582, AID2599]; format: functional
# T3 sequence (Q9GZR1 whole entry): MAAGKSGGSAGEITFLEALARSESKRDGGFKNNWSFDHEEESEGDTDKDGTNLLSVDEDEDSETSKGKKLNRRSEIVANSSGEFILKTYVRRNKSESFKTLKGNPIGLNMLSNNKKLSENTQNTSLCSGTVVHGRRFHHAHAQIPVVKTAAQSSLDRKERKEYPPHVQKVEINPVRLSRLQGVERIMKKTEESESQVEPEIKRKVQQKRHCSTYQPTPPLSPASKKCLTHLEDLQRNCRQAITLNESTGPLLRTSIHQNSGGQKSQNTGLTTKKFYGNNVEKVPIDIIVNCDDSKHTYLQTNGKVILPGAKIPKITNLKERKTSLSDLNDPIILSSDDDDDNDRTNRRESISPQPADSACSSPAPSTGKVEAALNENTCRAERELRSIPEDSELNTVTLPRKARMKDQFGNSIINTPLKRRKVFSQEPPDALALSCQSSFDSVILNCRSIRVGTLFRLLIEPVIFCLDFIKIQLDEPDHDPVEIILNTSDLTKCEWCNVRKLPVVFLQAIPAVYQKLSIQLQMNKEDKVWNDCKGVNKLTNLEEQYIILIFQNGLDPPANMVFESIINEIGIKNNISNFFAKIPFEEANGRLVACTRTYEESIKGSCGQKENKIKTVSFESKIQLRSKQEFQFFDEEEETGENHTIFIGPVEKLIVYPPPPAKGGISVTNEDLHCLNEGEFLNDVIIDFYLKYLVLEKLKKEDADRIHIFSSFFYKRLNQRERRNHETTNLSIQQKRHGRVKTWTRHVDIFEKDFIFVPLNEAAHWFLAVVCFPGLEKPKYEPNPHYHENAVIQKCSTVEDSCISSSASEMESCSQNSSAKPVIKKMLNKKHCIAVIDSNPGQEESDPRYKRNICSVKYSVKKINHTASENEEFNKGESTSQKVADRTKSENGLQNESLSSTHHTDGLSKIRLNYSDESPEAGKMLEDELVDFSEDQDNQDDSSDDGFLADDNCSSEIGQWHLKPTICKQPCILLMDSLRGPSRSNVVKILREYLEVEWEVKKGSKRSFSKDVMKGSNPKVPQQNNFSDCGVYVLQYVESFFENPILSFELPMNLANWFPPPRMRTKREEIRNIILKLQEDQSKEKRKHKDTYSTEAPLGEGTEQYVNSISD
# [5] = molecular target: T4, Sentrin-specific protease 7 (Homo sapiens, UniProt Q9BQF6); assay: SENP7 protease inhibitors, SAR follow-up, biochemical, luminescence (AID 504497); format: functional
# T4 sequence (Q9BQF6 whole entry): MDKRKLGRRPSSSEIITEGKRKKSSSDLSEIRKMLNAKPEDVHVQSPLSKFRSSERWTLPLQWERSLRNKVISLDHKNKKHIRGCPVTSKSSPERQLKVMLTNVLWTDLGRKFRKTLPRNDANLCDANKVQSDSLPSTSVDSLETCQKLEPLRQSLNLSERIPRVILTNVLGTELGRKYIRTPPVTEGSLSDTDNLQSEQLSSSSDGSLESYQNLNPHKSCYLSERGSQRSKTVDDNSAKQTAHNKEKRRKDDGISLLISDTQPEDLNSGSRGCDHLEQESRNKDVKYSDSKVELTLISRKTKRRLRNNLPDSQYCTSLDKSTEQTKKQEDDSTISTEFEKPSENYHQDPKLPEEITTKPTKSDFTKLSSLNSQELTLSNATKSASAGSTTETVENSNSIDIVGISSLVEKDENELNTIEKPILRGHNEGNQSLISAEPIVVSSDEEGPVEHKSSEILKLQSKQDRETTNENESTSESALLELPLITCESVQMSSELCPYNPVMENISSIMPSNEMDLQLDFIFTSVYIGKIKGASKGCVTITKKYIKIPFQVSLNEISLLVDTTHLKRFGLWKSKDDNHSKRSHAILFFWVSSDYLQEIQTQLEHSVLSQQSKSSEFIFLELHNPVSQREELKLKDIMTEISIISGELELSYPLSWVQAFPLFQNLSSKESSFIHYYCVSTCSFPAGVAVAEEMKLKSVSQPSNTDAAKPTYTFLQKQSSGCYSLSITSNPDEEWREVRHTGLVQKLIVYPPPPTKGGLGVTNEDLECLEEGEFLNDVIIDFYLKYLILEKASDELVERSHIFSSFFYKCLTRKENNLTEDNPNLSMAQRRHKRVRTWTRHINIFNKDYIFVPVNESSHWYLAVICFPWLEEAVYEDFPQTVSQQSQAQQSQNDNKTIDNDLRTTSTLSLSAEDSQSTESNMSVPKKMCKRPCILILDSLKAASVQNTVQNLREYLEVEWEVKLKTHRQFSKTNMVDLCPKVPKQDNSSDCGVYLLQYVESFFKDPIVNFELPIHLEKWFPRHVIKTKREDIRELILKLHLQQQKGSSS
# [6] = A Cell Based Secondary Assay to Explore Cytotoxicity in THP-1 Cells of Compounds that Modulate Mycobacterium tuberculosis in Media Containing Glycerol versus Media without Glycerol (2).; format: functional
# [7] = A Cell Based Secondary Assay to Explore Cytotoxicity in HepG2 Cells of Compounds that Modulate Mycobacterium tuberculosis in Media Containing Glycerol versus Media without Glycerol (2).; format: functional
# [8] = Vero cell cytotoxicity, dose response, cytotoxicity control for M. tuberculosis growth inhibitor project, Vero cells, purified and synthesized compounds, set 5 (AID 504909); format: functional; details: Mycobacterium tuberculosis
# [9] = Vero cell cytotoxicity, cytotoxicity control for M. tuberculosis inhibitor project, purified and synthesized samples, set 3 (AID 504684); format: functional
# [10] = Vero cell cytotoxicity, dose response, cytotoxicity control for M. tuberculosis growth inhibitor project, Vero cells, purified and synthesized compounds, set 4 (AID 504854); format: functional; details: Mycobacterium tuberculosis
# [11] = THP-1 cell cytotoxicity, cytotoxicity control, set 4 (AID 504911); format: functional; details: Mycobacterium tuberculosis
# [12] = THP-1 cell cytotoxicity, dose response, cytotoxicity control, set 3 (AID 504852); format: functional; details: Mycobacterium tuberculosis
# HEK293 [13] = assay: optical interference in Abeta FP readout, dose response, artefact control for IDE activator project, biochemical, fluorescence polarization (AID 588442); format: functional, cell-based; details: Homo sapiens
# cells [14] = format: functional, cell-based
# HEK293 [15] = assay: HEK cell cytotoxicity by LDH release, dose response, cytotoxicity control for IDE activator project, fluorescence, HEK cells (AID 588440); format: functional, cell-based; details: Homo sapiens;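 also: cytotoxicity by LDH release measuring loss of membrane integrity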
# Insulin-degrading enzyme [16] = molecular target: T5, Insulin-degrading enzyme (Homo sapiens, UniProt P14735); assay: activators of recombinant IDE enzyme, dose response, counter-screen for IDE activator project, biochemical, fluorescence polarization (AID 588681)
# Insulin-degrading enzyme [17] = molecular target: T5, Insulin-degrading enzyme; assay: activators of endogenous IDE in HEK cells, dose response, cell-based, fluorescence polarization (AID 588439); format: functional
# cells [18] = format: functional, cell-based; remark: listed apart in the source
# NIH3T3 = assay: mammalian cell toxicity in NIH-3T3 fibroblasts, dose response, cytotoxicity control for antifungal resistance reversal project, Alamar Blue, dry powder, set 2 (AID 488911); format: functional, cell-based; details: Mus musculus
# [19] = inhibitors of intracellular T. cruzi replication, confirmation, NIH3T3 host cells, beta-gal luminescence (AID 2044); format: functional, cell-based;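 also: intracellular parasites grown in NIH/3T3 mouse fibroblasts as host cells; luminescent beta-galactosidase reporter signal from transgenic T. cruzi replicating inside host cells; inhibitors lower the luminescence signal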
# [20] = cytotoxicity toward NIH3T3 fibroblasts, dose response, counter-screen, cell-based, ATP luminescence, mouse fibroblasts (AID 2010); format: functional;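 also: cells exposed to compound for about 90 hours before reading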
# Melanocortin receptor 4 = Melanocortin receptor 4 (Homo sapiens, UniProt P32245); assay: MC4R antagonist potency on cAMP, dose response, cell-based, TR-FRET, biased antagonists (AID 602298); format: functional;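 also: antagonist potency against agonist-stimulated cAMP production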
# [21] = nonselective inhibitors of cellular cAMP signaling, dose response, counter-screen for MC4R biased antagonist project, cell-based, TR-FRET cAMP detection (AID 602305); format: functional;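 also: U2OS cells stimulated with forskolin near its EC80 as the cAMP inducer; potency is for inhibition of forskolin-stimulated cAMP signaling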
# T5 sequence (P14735 whole entry): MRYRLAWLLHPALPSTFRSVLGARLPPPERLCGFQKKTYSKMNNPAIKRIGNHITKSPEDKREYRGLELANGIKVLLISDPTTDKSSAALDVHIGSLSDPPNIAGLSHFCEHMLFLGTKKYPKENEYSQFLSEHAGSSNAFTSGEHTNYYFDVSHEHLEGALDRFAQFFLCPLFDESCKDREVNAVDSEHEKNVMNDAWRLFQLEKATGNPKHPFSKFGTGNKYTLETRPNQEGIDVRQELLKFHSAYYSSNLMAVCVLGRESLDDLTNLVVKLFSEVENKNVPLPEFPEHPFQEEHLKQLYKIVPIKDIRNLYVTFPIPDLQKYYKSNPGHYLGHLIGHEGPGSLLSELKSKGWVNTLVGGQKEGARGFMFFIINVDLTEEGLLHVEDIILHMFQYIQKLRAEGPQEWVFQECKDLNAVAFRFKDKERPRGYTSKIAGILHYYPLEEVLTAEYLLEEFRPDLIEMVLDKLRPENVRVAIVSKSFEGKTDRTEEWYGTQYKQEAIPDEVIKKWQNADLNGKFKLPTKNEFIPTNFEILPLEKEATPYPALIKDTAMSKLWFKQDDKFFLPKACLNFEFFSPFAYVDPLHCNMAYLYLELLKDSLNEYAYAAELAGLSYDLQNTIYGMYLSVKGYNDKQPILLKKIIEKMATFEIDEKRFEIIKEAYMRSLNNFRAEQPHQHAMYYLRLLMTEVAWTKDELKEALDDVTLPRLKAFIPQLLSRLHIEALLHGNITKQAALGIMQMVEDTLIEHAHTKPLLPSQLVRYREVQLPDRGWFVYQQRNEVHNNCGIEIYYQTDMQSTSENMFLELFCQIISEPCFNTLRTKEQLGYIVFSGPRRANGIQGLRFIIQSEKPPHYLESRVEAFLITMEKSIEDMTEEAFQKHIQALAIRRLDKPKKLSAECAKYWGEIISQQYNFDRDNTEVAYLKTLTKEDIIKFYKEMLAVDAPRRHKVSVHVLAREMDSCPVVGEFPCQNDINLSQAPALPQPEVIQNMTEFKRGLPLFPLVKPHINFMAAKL
# Vascular endothelial growth factor receptor 1, sequence (P17948 whole entry): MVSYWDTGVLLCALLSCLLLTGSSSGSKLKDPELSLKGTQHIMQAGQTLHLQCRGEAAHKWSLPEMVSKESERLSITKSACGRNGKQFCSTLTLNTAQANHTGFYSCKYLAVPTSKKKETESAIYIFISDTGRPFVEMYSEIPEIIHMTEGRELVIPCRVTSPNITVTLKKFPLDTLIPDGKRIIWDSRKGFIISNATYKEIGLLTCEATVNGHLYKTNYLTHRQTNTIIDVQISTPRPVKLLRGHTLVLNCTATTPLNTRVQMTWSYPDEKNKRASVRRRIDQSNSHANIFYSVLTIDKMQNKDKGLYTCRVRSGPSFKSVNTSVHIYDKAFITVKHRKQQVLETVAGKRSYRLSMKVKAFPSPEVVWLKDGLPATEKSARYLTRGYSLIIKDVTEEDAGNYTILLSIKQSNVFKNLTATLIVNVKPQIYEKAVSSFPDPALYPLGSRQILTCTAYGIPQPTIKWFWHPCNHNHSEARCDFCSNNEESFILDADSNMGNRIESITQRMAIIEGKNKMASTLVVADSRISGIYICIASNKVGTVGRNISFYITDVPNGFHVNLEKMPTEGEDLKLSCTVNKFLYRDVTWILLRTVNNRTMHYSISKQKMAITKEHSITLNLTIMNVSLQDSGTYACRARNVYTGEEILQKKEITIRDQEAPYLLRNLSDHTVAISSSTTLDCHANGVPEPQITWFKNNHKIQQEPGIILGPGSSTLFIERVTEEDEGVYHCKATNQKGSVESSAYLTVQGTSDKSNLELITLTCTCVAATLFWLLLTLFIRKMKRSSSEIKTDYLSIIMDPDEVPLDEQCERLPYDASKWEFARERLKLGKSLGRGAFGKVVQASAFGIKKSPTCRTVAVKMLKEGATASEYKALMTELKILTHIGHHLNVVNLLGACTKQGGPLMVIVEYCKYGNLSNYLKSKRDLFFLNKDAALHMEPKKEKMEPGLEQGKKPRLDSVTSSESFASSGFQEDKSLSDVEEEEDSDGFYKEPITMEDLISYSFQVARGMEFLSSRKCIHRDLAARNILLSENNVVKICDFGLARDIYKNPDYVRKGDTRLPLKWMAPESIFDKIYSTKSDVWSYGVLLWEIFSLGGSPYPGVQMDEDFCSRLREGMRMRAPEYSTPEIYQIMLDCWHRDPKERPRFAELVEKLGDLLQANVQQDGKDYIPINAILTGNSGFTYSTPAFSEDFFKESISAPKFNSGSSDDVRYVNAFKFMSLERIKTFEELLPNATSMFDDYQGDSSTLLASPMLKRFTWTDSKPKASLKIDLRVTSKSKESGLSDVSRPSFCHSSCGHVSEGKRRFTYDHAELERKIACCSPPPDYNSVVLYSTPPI
# Melanocortin receptor 4, sequence (P32245 whole entry): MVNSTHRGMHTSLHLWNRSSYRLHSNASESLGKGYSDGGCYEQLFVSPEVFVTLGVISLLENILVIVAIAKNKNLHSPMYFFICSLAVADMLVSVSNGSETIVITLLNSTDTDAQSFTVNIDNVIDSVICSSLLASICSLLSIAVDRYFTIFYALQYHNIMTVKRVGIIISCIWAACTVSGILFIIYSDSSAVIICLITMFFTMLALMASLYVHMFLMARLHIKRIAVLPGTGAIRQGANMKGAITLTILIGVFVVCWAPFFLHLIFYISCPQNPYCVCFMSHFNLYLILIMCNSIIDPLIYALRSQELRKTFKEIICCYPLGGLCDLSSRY
# Cyclin-dependent kinase 19, sequence (Q9BWU1 whole entry): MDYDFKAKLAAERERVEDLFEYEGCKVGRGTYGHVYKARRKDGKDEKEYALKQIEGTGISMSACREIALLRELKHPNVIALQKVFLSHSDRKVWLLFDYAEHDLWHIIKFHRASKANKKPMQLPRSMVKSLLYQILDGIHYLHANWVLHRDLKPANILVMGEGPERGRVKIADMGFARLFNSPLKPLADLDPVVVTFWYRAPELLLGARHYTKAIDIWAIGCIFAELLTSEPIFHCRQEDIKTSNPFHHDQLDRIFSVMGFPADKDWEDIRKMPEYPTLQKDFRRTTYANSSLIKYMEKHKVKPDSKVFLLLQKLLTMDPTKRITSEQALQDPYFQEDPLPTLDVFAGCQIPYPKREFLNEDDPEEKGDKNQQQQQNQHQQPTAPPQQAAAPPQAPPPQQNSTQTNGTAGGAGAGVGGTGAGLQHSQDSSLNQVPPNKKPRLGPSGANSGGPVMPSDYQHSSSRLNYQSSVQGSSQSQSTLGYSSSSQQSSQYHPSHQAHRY
structure (smiles),measurement,setting,value
Cc1ccc(F)c(NC(=O)Nc2ccc(-c3coc4c(-c5cccnc5)cnc(N)c34)cc2)c1,Ki,[1],> 100 µM (inactive)
same,Ki,[2],0.000251 µM (active)
CCC(C)(C)c1ccc2c(c1)C(=O)c1ccccc1C2=O,IC50,[3],2.38 µM (active)
same,IC50,Caspase-3,2.88 µM (active)
same,IC50,[4],2.05 µM (active)
same,IC50,[5],1.31 µM (active)
COC(=O)C(Nc1nc(SCC(=O)NC2CCCCC2)nc2ccccc12)c1ccccc1 (centres undefined),CC50,[6],70.9 µM (active)
same,CC50,[7],> 50 µM (active)
same,CC50,[8],> 100 µM (active)
same,CC50,[9],73.2 µM (active)
same,CC50,[10],66 µM (active)
same,CC50,[11],129 µM (active)
same,CC50,[12],41.1 µM (active)
COc1ccc(NC(=O)C2CCN(S(=O)(=O)c3ccc4c(c3)CC(C)N4C(C)=O)CC2)cc1OC (centres undefined),EC50,HEK293 [13],> 54.7 µM (inactive)
same,EC50,cells [14],> 350 µM (not active)
same,IC50,HEK293 [15],> 89.2 µM (inactive)
same,EC50,Insulin-degrading enzyme [16],> 54.7 µM (inactive)
same,EC50,Insulin-degrading enzyme [17],> 54.7 µM (inactive)
same,EC50,cells [18],> 350 µM (not active)
O=C(O)Cn1nc(-c2ccccc2)c2ccccc21,AC50,NIH3T3,> 260 µM (inactive)
N#Cc1c(N2CCN(C(=O)c3ccco3)CC2)nc(-c2ccccc2)c2c1CCCC2,EC50,[19],2.31 µM (active)
same,EC50,[20],> 60 µM (not active)
same,IC50,Melanocortin receptor 4,> 64.6 µM (inactive)
same,IC50,[21],> 64.6 µM (inactive)

# From ChEMBL document CHEMBL1201862, “PubChem BioAssay data set” (2004)
